{"source": "patent US8703725B2", "about": "“Nutritional compositions” (NESTEC S.A., priority 2002, dated 2014)", "test_system": "muscle protein kinetics", "assay": "Protein kinetics in muscle of rabbits infused with amino acid mixtures (surgical stress model)", "type": "in vivo, New Zealand white rabbits", "conditions": "rabbit, infusion, means ± SEM", "procedure": "To investigate the optimal mixture of free amino acids for stimulating net muscle protein synthesis a series of studies in New Zealand white rabbits weighing about 4.5 kg was performed. Net muscle protein balance was quantified by a technique analogous to the one used for human studies as described in Biolo et al, J Parent Enteral Nutr 16:305-315, 1992, which is hereby incorporated by reference, except that leg blood flow was measured by flow probe. This animal model is designed to represent a stress model induced by the surgical procedures needed to collect the samples and therefore is considered to be a good model for a seriously-ill […] patient. Different amino acid mixtures were infused into the rabbits, and the response of muscle quantified.\nThe groups were as follows:\nAA group: A balanced AA solution (10% TRAVASOL®) containing all amino acids (27.3 umol·kg^−1·min^−1)\nEAA group: Only essential amino acids (27.3 umol·kg^−1·min^−1)\nLeu (25%)+AA group: Leucine was added to the balanced AA solution to account for 25% of total nitrogen and infused at the same total nitrogen group as others (27.3 umol·kg^−1·min^−1)\nLeu (35%)+AA group: Same as above, except Leu comprised 35% of total\nLeu only: Leucine only at 8.3 umol·kg·min", "data": [{"compound": "CC(C)C[C@H](N)C(=O)O", "note": "[Leu alone, Leucine]", "values": [{"measurement": "Protein kinetics in muscle: Breakdown", "result": "9.2 ± 0.5", "unit": "µmol/kg/min"}, {"measurement": "Protein kinetics in muscle: Net balance", "setting": "*p<0.05 vs control", "result": "-2.6 ± 0.3", "unit": "µmol/kg/min"}, {"measurement": "Protein kinetics in muscle: Synthesis", "setting": "*p<0.05 vs control", "result": "6.6 ± 0.7", "unit": "µmol/kg/min"}]}]}
